The record followed here is paper PMC8795539 (Proceedings of the National Academy of Sciences of the …, 2022).

Data set [1] has as its target T1, SmoB (Atu3278), 6-OG reductase (Agrobacterium fabrum, UniProt A9CEY6).
T1 sequence (A9CEY6 1-297): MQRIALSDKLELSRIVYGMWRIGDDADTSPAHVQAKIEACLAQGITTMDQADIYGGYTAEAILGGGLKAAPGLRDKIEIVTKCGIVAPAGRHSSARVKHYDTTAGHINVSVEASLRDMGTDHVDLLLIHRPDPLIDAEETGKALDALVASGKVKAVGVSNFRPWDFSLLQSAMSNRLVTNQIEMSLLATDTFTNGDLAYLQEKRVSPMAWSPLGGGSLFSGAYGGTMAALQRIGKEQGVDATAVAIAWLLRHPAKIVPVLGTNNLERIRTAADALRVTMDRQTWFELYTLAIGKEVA
As to the kind of experiment: ITC. Format: binding.

For data set [2], the target named is T2, SmoA (Atu3277), flavin mononucleotide reductase (Agrobacterium fabrum, UniProt Q7CS24).
T2 sequence (Q7CS24 1-174): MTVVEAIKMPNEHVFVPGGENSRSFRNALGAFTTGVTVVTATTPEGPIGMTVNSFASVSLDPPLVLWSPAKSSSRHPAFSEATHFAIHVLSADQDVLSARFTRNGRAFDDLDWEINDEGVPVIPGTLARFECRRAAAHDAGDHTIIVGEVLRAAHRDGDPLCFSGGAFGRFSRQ
As to the kind of experiment: copurification, LC-MS of heat-released flavin. It is filed as binding.

The data set “SEC-MALS” concerns the molecule itself. In words: SEC-MALS. In general terms: SEC sorts molecules by how far they enter the pores of the column.
Substrate in the data set “purified protein”: NC(=O)C1=CN([C@@H]2O[C@H](COP(=O)(O)OP(=O)(O)OC[C@H]3O[C@@H](n4cnc5c(N)ncnc54)[C@H](O)[C@@H]3O)[C@@H](O)[C@H]2O)C=CC1
In words: purified protein. The settings on record: FMN.

Turning to `NC(=O)C1=CN([C@@H]2O[C@H](COP(=O)(O)OP(=O)(O)OC[C@H]3O[C@@H](n4cnc5c(N)ncnc54)[C@H](OP(=O)(O)O)[C@@H]3O)[C@@H](O)[C@H]2O)C=CC1` [NADPH], the Kd (in general, the free concentration of one partner at which half of the binding sites on the other are occupied at equilibrium, for simple one-to-one binding) in data set [1] is around 2 µM.

Regarding `Cc1cc2nc3c(=O)[nH]c(=O)nc-3n(C[C@H](O)[C@H](O)[C@H](O)COP(=O)(O)O)c2cc1C` [FMN], the “copurification, LC-MS of heat-released flavin” value in data set [2] is listed as “to reveal that flavin mononucleotide (FMN) was the sole detectable flavin”.

B1: SmoC (Atu3279), SQ monooxygenase from Agrobacterium tumefaciens C58 (enzyme)
chain: MTVVPVTSADLDAAEVSWFSALCSDDYAYLGVPDGSLRSSFEHCSDIVKKAEELGFRNILCPSSYQVGQDTLSFVAGCAPISDRINFLAAIRCGEMQPIMLARTVATLDHMLKGRLTLNVISSDFPGEVADSAFRYKRSHEVVEILRQAWTRDTIDHDGEIYQFKGVSTEPARPYQLNGGPLLYFGGYSPDALELCGAQCDVYLMWPETKDQLADRMRAAHERAAAHGRTLDYGLRVHMVVRDTEQEAREYADHLVSKLDDEYGQLIRNRAHDSGSLGVSHQARARELADKFGYVEPNLWTGIGRARSGCGAALVGSTDQVLSALEEYQKMGIRAFILSGYPHLDEAEHFGTKVLPQMKTCSLPHAYGRVPSETPATPLGNGERH
As to B1, the stoichiometry N (in general, a count of units in the complex or per binding partner) in the data set “SEC-MALS” came to 2.

B2: SmoA (Atu3277), flavin mononucleotide reductase (Agrobacterium fabrum str. C58) (protein)
chain: MTVVEAIKMPNEHVFVPGGENSRSFRNALGAFTTGVTVVTATTPEGPIGMTVNSFASVSLDPPLVLWSPAKSSSRHPAFSEATHFAIHVLSADQDVLSARFTRNGRAFDDLDWEINDEGVPVIPGTLARFECRRAAAHDAGDHTIIVGEVLRAAHRDGDPLCFSGGAFGRFSRQ
As for B2, the Michaelis constant (Km) – broadly, the concentration of substrate that gives half-maximal velocity – in the data set “purified protein” is recorded as 35 ± 5 µM.
